Patent US20230271956A1, “AMIDE DERIVATIVES” (Merck Patent GmbH, priority 2020, published 2023)
pIC50: −log10 of the molar value.

What was measured:
human rec ACSS2 = biological target: T1, human rec ACSS2 (Homo sapiens, UniProt Q9NR19); test: Biochemical activity ACSS2 assay (AMP-Glo); conditions: human recombinant ACSS2, AMP-Glo, 180 min at 37° C.
T1 construct: myc (C); purchased Origene
Description: The biochemical activity assay for ACSS2 is based on the detection of released AMP by AMP-Glo ™ Assay kit (Promega, Madison). The assay is run in three steps: the enzymatic reaction in which human rec ACSS2 activates acetate with ATP and Coenzyme A as cosubstrates to acetyI-coA thereby releasing AMP and the detection reaction of AMP by AMP Glo assay in which after the destruction of the residual ATP with AMP Glo reagent 1 produced AMP is converted to ATP that is measured in a luciferase assay system (detection reagent). The ACSS2 activity correlates with the detected luminescence signal.
The assay was performed in Perkin Elmer 384well white Proxiplates in a total volume of 8 µl.
1 nM (fc) C-term myc tagged ACSS2 (human, recombinant, Origene, Rockville, US) and a mixture of 100 µM (fc) ATP, 100 µM (fc) Coenzyme A and 500 µM (fc) sodium acetate were incubated in a total volume of 5 µl (50 mM Hepes, 1 mM Mg-chloride, 150 mM NaCl, 1 mM DTT, 0.01 % (w/v) BSA, 0.3 % DMSO, pH 7.5) in the absence or presence of the test compound (10 dilution concentrations, start conc 30 µM) for 180 min at 37° C. The reaction was stopped and residual ATP destroyed by the addition of 1 µl AMP Glo reagent solution (Promega, Madison, US). After 1 h incubation at room temperature 2 µl of AMP Glo detection reagent was added and the assay was incubated for 0.75 hr at room temperature. The luminescence signal was measured with an Envision multimode reader (Perkin Elmer LAS Germany GmbH) at 700 nm in luminescence mode. The full value used was the inhibitor-free reaction. The pharmacological zero value was generated by addition of ACSS2 inhibitor (Ac-CoA Synthase Inhibitor - CAS 508186-14-9 -Calbiochem) in a final concentration of 5 µM. The inhibitory values (IC50) were determined using the program Assay Analyzer® from GeneData.

ACSS2 = biological target: T2, ACSS2 (Homo sapiens, UniProt Q9NR19); test: Cellular assay of 14C acetate incorporation into histones (IC50 ACSS2 cellular histone); format: cell-based; conditions: HCT-15 cells
T2 construct: endogenous fatty acid synthesis activity in the human HCT-15 cancer cell line; endogenous in cells; host or cells: HCT-15
T2 sequence (Q9NR19 whole entry): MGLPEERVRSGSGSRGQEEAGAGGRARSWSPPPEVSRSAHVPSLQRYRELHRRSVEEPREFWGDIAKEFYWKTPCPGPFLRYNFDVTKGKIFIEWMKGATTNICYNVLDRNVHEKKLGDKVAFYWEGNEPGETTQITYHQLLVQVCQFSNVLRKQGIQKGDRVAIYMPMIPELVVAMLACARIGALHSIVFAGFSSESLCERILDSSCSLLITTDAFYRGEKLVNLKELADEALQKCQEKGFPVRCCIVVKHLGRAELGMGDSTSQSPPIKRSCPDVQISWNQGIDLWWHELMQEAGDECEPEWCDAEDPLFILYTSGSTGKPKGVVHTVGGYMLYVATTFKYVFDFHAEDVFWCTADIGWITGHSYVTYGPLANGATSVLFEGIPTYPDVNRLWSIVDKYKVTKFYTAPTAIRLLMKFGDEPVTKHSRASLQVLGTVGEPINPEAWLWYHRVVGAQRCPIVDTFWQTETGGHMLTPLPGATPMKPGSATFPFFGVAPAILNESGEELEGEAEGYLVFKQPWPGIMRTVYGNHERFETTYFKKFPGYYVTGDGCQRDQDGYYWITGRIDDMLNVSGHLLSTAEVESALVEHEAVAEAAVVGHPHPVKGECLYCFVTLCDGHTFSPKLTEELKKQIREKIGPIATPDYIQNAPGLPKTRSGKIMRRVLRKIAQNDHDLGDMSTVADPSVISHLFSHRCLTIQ
Description: This protocol describes a cellular assay capable to quantify endogenous histone acetylation activity in the human HCT-15 cancer cell line following the incorporation of extracellularly administered radiolabeled ^14C acetate with a scintillation based read out on acid extracted histones.
HCT-15 cells are trypsinized, washed and suspended in DMEM culture medium supplemented with penicillin/streptomycin (100 U/mL), sodium pyruvate (1 mM), and 10% FBS
Compounds serial dilutions are prepared in 96-well V-bottom microplate from 10 mM stock solutions in DMSO. From these dilutions 0.5 µl are transferred to a fresh plate including pure DMSO as negative control. The dilutions are prepared such, that the final concentration in the assay is 1/400 of the concentration in the serial dilution. The final DMSO concentration in the assay is 0.25 %.
The cell suspension is seeded at densities of 2x10^5 cells per 170 µl into individual wells of a 96 well plate each containing 0.5 µl aliquots of compound serial dilutions and are kept for 1h in a cell incubator. To each well 30 µL of a mixture containing 0.5 mCi/mL of ^14C-acetate with full medium are added. Then, the wells are incubated for 3 hrs in the cell incubator.
Further steps of the procedure should be conducted on ice or instrumentations precooled to 4° C. Cells are sedimented in the 96-well V-bottom microplate by centrifugation (Eppendorf 5804 R) at 1200 rpm for 5 min. The supernatant is removed and the cells are washed twice with 200µL of PBS-NaB (5 mM sodium butyrate) buffer by iterative resuspension and centrifugation. Finally, the cells are resuspended in 50 µL of TEB (PBS-NaB + 0.5 % Triton X-100) and left on ice for 10 minutes. After centrifugation at 2300 rpm for 10 minutes at 4° C. the supernatant is removed, the remaining pellet is suspended in 50 µL of 0.2 M HCl and incubated over night at 4° C. After incubation the well plate is shaken for 2 minutes in a MTP plate shaker set to 1200 rpm and then centrifuged at 3700 rpm for 10 mins. The lysate is carefully aspirated (~43 µL) and transferred into a white MTP plate (Greiner bio-one 65509). 90 µL of Ultima Gold XR scintillation cocktail are added and the plates are sealed with a transparent cover tape before mixing vigorously using plate shaker set to 1200 rpm. Radioactivity from ^14C incorporation in the wells is measured as CPM count in a MicroBeta Trilux luminescence counter.

T1 sequence (Q9NR19 whole entry): as above

Row | SMILES | pIC50 (human rec ACSS2) | pIC50 (ACSS2)
1 | CCc1nc(CNC(=O)c2cc3c(nc2OC)nc(C(O)(c2ccccc2)c2ccccc2)n3CC)no1 [Compound 63, 1-ethyl-N-[(5-ethyl-1,2,4-oxadiazol-3-yl)methyl]-2-(hydroxydiphenylmethyl)-5-methoxy-1H-imidazo[4,5-b]pyridine-6-carboxamide] | 5.00 to 7.00 | 7.00 to 8.00
2 | CCn1cnc(NC(=O)c2cc3c(nc2OC)nc(C(O)(c2ccccc2)c2ccccn2)n3CC)n1 (single isomer, unassigned) [Compound 54, 1-ethyl-N-(1-ethyl-1H-1,2,4-triazol-3-yl)-2-[hydroxy(phenyl)(pyridin-2-yl)methyl]-5-methoxy-1H-imidazo[4,5-b]pyridine-6-carboxamide] | 7.00 to 8.00 | 7.00 to 8.00
3 | CCn1cnc(NC(=O)c2cc3c(nc2OC)nc(C(O)(c2ccccc2)c2cnn(C)c2)n3CC)n1 (racemic) [Compound 48, 1-ethyl-N-(1-ethyl-1H-1,2,4-triazol-3-yl)-2-[hydroxy(1-methyl-1H-pyrazol-4-yl)phenylmethyl]-5-methoxy-1H-imidazo[4,5-b]pyridine-6-carboxamide] | 5.00 to 7.00 | 5.00 to 7.00
4 | CCn1cc(NC(=O)c2cc3c(nc2OC)nc(C(O)(c2ccccc2)c2ccc(OC(F)F)cc2F)n3CC)cn1 (racemic) [Compound 79, 2-{[4-(difluoromethoxy)-2-fluorophenyl](hydroxy)phenylmethyl}-1-ethyl-N-(1-ethyl-1H-pyrazol-4-yl)-5-methoxy-1H-imidazo[4,5-b]pyridine-6-carboxamide] | 7.00 to 8.00 | 8.00 to 9.00
5 | CCc1cc2nc(C(O)(c3ccccc3)c3ccccc3)c(CC)n2cc1C(=O)Nc1ncn(CC)n1 (racemic) [Compound 33, 3,7-diethyl-N-(1-ethyl-1H-1,2,4-triazol-3-yl)-2-(hydroxydiphenylmethyl)imidazo[1,2-a]pyridine-6-carboxamide] | 7.00 to 8.00 | 
6 | CCc1c(C(O)(c2ccccc2)c2ccc(C)s2)nc2cc(OC)c(C(=O)Nc3ncn(CC)n3)cn12 (single isomer, unassigned) [Compound 26, 3-Ethyl-2-[hydroxy-(5-methyl-thiophen-2-yl)-phenyl-methyl]-7-methoxy-imidazo[1,2-a]pyridine-6-carboxylic acid (1-ethyl-1H-[1,2,4]triazol-3-yl)-amide] | 5.00 to 7.00 | 
7 | CCc1c(C(O)(c2ccccc2)c2nccs2)nc2cc(OC)c(C(=O)Nc3ncn(CC)n3)cn12 (racemic) [Compound 32, 3-ethyl-N-(1-ethyl-1H-1,2,4-triazol-3-yl)-2-[hydroxy(phenyl)(1,3-thiazol-2-yl)methyl]-7-methoxyimidazo[1,2-a]pyridine-6-carboxamide] | 7.00 to 8.00 | 
8 | CCn1cnc(NC(=O)c2cc3c(nc2OC)nc(C(O)(c2ccccc2)c2ccn(C)n2)n3CC)n1 (racemic) [Compound 40, 1-ethyl-N-(1-ethyl-1H-1,2,4-triazol-3-yl)-2-[hydroxy(1-methyl-1H-pyrazol-3-yl)phenylmethyl]-5-methoxy-1 H-imidazo[4,5-b]pyridine-6-carboxamide] | 7.00 to 8.00 | 

Other lines, results leading:

Row | pIC50 (human rec ACSS2) | pIC50 (ACSS2) | SMILES
9 | 9.00 to 11.00 | 8.00 to 9.00 | CCn1cnc(NC(=O)c2cc3c(nc2Cl)nc(C(O)(c2ccccc2F)c2ccccc2F)n3CC)n1 [Compound 100, 2-[bis(2-fluorophenyl)(hydroxy)methyl]-5-chloro-1-ethyl-N-(1-ethyl-1H-1,2,4-triazol-3-yl)-1H-imidazo[4,5-b]pyridine-6-carboxamide]
10 | 7.00 to 8.00 | 8.00 to 9.00 | CCn1cnc(NC(=O)c2cc3c(nc2OC)nc(C(O)(c2ccccc2)c2ncccn2)n3CC)n1 (racemic) [Compound 49, 1-ethyl-N-(1-ethyl-1H-1,2,4-triazol-3-yl)-2-[hydroxy(phenyl)(pyrimidin-2-yl)methyl]-5-methoxy-1H-imidazo[4,5-b]pyridine-6-carboxamide]
11 | 8.00 to 9.00 | 8.00 to 9.00 | CCn1cnc(NC(=O)c2cc3c(nc2OC)nc(C(O)(c2ccccc2)c2ccccc2)n3CCOC)n1 [Compound 41, N-(1-ethyl-1H-1,2,4-triazol-3-yl)-2-(hydroxydiphenylmethyl)-5-methoxy-1-(2-methoxyethyl)-1H-imidazo[4,5-b]pyridine-6-carboxamide]
12 | 7.00 to 8.00 | 7.00 to 8.00 | CCn1cc(NC(=O)c2cnc3nc(C(O)(c4ccccc4F)c4ccccc4F)n(CC)c3c2)cn1 [Compound 112, 2-[bis(2-fluorophenyl)(hydroxy)methyl]-1-ethyl-N-(1-ethyl-1H-pyrazol-4-yl)-1H-imidazo[4,5-b]pyridine-6-carboxamide]
13 | 8.00 to 9.00 |  | CCn1cnc(NC(=O)c2cc3c(nc2OC)nc(C(O)(c2ccccc2)c2ccc4ccccc4n2)n3CC)n1 (racemic) [Compound 35, 1-ethyl-N-(1-ethyl-1H-1,2,4-triazol-3-yl)-2-[hydroxy(phenyl)(quinolin-2-yl)methyl]-5-methoxy-1H-imidazo[4,5-b]pyridine-6-carboxamide]
14 | 8.00 to 9.00 |  | CCc1c(C(O)(c2ccccc2)c2ccc(C)s2)nc2cc(OC)c(C(=O)Nc3ncn(CC)n3)cn12 (single isomer, unassigned) [Compound 27, 3-Ethyl-2-[hydroxy-(5-methyl-thiophen-2-yl)-phenyl-methyl]-7-methoxy-imidazo[1,2-a]pyridine-6-carboxylic acid (1-ethyl-1H-[1,2,4]triazol-3-yl)-amide]
15 | 9.00 to 11.00 |  | CCn1cnc(NC(=O)c2cc3c(nc2OC)nc(C(O)(c2ccccc2)c2ccccc2)n3C)n1 [Compound 36, N-(1-ethyl-1H-1,2,4-triazol-3-yl)-2-(hydroxydiphenylmethyl)-5-methoxy-1-methyl-1H-imidazo[4,5-b]pyridine-6-carboxamide]
16 | 9.00 to 11.00 |  | [2H]c1c([2H])c([2H])c(C(O)(c2c([2H])c([2H])c([2H])c([2H])c2[2H])c2nc3nc(OC)c(C(=O)Nc4ncn(CC)n4)cc3n2CC)c([2H])c1[2H] [Compound 37, 1-ethyl-N-(1-ethyl-1H-1,2,4-triazol-3-yl)-2-{hydroxybis[(2,3,4,5,6-^2H5)phenyl]methyl}-5-methoxy-1 H-imidazo[4,5-b]pyridine-6-carboxamide]
17 | 8.00 to 9.00 |  | CCn1cnc(NC(=O)c2cc3c(nc2OC)nc(C(O)(c2ccccc2)c2ccsc2)n3CC)n1 (racemic) [Compound 39, 1-ethyl-N-(1-ethyl-1H-1,2,4-triazol-3-yl)-2-[hydroxy(phenyl)(thiophen-3-yl)methyl]-5-methoxy-1H-imidazo[4,5-b]pyridine-6-carboxamide]
18 | 8.00 to 9.00 |  | CCn1cnc(NC(=O)c2cc3c(nc2OC)nc(C(O)(c2ccccc2)c2ccccc2C)n3CC)n1 (racemic) [Compound 56, 1-ethyl-N-(1-ethyl-1H-1,2,4-triazol-3-yl)-2-[hydroxy(2-methylphenyl)phenylmethyl]-5-methoxy-1H-imidazo[4,5-b]pyridine-6-carboxamide]
19 | 8.00 to 9.00 |  | CCn1cnc(NC(=O)c2cc3c(nc2OC)nc(C(O)(c2ccsc2)c2ccsc2)n3CC)n1 [Compound 38, 1-ethyl-N-(1-ethyl-1H-1,2,4-triazol-3-yl)-2-[hydroxybis(thiophen-3-yl)methyl]-5-methoxy-1H-imidazo[4,5-b]pyridine-6-carboxamide]
